Reference: patent US12612427B2, “Aryl glucoside derivative, preparation method therefor and application thereof” (Shanghai Zheye Biotechnology Co. Ltd., priority 2020, dated 2026)
“And” between values parts separate entries of the source, which are not always exact repeats. Equal entries are not always repeated.

How the values were obtained:
[1] = tested on: SD rats; experiment: Oral glucose tolerance test (OGTT) after continuous administration in rats for 14 days; assay type: in vivo, rat; details: for blood sugar level of rats (OGTT): 0.009 mg/kg oral gavage, 14 days, OGTT on day 15; for loose stools in the experimental animals: rats, within 48 hours before and after the experiment
Description: • Experimental animals: SPF male SD rats; • Compound preparation: an appropriate amount of the compounds of Example 1, Example 2, Example 9, Example 10, and Example 17 were weighed, and uniformly suspended with an appropriate amount of 0.5% CMC-Na solution; • Preparation of glucose solution: an appropriate amount of glucose powder was weighed and dissolved with an appropriate amount of pure water; • Dosage and method of administration: 0.009 mg/kg, oral gavage.
Experimental process: the animals were fed a normal diet with consecutive administration for 14 days, and the glucose tolerance test was performed on day 15, blood glucose was detected before administration (−30 min), before giving glucose (0 min), and 10, 30, 60, and 120 min after giving glucose solution, and the defecation of animals was observed.

[2] = tested on: microorganisms in rat feces; experiment: Intestinal microbial metabolic stability in rat feces suspension; assay type: in vitro ADME; details: for Percentage of remaining compound: rat feces suspension, 37° C.
Description: Methods: The collected rat feces were processed, and the feces suspension was obtained for the determination of metabolic stability. The mixed reaction system consisting of the rat feces suspension and the compound of […] was incubated at 37° C. for 3 h, 6 h, 12 h and 24 h. The compound of Example 10 in the incubation system was analyzed to determine the total amount of remaining compound. Wherein, “+” represents the remaining percentage being: <50%; “++” represents the remaining percentage being: 50% to 70%; “+++” represents the remaining percentage being: 70% to 90%; “++++” means the remaining percentage being: >90%.

[3] = tested on: SD mice; experiment: Oral glucose tolerance test (OGTT) after consecutive administration in mice; assay type: in vivo, mouse; details: for Statistics of loose stools in animals / loose stools (in words): mice
Description: • Experimental animals: SPF male SD mice; • Compound preparation: an appropriate amount of the compound of Example 10 was weighed, and uniformly suspended with an appropriate amount of 0.5% CMC-Na solution; • Preparation of glucose solution: an appropriate amount of glucose powder was weighed and dissolved with an appropriate amount of pure water; • Administration and dosage: oral gavage; blank vehicle group, high-dose group (1.5 mg/kg), low-dose group (0.1 mg/kg). Experimental Process: • (1) The mice were fed a high-sugar diet for 6 days, and then grouped (10 mice in each group) to enter the administration stage; • (2) Example compound 10 was administered at 5:00 pm every day from day 1 to day 5, once a day, and then the animals were fed a high-sugar free diet, and the defecation of the animals was observed. • (3) On day 6, oral glucose tolerance test was performed, and glucose solution (2 g/kg) was orally administered. Blood glucose was detected before (0 min) and 10, 30, and 60 min after giving glucose solution, respectively. Experimental Results: • (1) From day 1 to day 5, the observation of animal defecation after continuous administration is summarized as follows: […]

[4] = tested on: type 2 diabetes mouse model; experiment: In vivo hypoglycemic efficacy experiment combined with sitagliptin; details: 0.01, 0.05, 0.1 mg/kg combined with 20 mg/kg of sitagliptin, STZ and high-fat high-sugar diet mice
Description: Model establishment: SPF grade Balb/C male mice were used in this experiment, and the establishment of the type 2 diabetes mouse model was induced by intraperitoneal injection of streptozotocin (STZ) supplemented by high-fat and high-sugar diet. • Group: 10 per group
Administration: normal group, model group, low-dose combined administration group (0.01 mg/kg of the compound of Example 10+20 mg/kg of sitagliptin), medium-dose combined administration group (0.05 mg/kg of the compound of Example 10+20 mg/kg of sitagliptin), high-dose combined administration group (0.1 mg/kg of the compound of Example 10+20 mg/kg of sitagliptin), sitagliptin group (20 mg/kg). The normal group and the model group were given the solvent by gavage.

[5] = biological target: T1, human SGLT1 (Homo sapiens, UniProt P13866); experiment: hSGLT1 inhibitor activity experiment 2: 2-NBDG uptake by HEK293 cells stably expressing human SGLT1; assay type: cell-based; details: for IC50: 2-NBDG uptake, HEK293 stably expressing human SGLT1, read-out: SGLT1 Inhibitory Activity
T1 construct: expressed in transfected cells
T1 sequence (P13866 1-664): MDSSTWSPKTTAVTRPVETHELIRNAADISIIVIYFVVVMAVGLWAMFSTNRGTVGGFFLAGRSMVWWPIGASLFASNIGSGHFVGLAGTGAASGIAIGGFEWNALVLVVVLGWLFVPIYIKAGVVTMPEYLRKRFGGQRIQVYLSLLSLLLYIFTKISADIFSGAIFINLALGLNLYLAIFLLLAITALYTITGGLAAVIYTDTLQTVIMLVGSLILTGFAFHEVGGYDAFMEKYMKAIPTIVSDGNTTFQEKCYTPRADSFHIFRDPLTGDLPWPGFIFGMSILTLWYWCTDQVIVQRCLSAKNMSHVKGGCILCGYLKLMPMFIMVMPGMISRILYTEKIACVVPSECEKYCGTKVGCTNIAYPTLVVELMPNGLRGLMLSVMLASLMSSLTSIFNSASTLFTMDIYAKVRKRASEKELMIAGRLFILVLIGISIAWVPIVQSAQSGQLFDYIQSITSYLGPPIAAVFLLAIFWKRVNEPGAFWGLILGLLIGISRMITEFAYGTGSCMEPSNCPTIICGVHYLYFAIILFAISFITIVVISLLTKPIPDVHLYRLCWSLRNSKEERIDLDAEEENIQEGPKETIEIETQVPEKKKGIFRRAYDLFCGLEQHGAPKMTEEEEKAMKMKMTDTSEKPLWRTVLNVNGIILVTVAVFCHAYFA
Description: Inhibitory activity testing was performed with reference to a similar method described in document [Acta Pharmaceutica Sinica 2017, 52 (6): 897-903; Nature Protocols (2007), 2(3), 753-762; Journal of Biochemical and Biophysical Methods (2005), 64(3), 207-215; Diabetes Technology & Therapeutics (2011), 13(7), 743-775].
In this experiment, the in vitro activity assay was evaluated using the uptake of 2-NBDG (2-Deoxy-2-[(7-nitro-2,1,3-benzoxadiazol-4-yl)amino]-D-glucose, CAS NO: 186689-07-6) by human embryonic kidney epithelial cells (HEK293, stably expressing human SGLT1), and the SGLT1 inhibitory activity of the target compound was determined by measuring its half-maximal inhibitory concentration (IC50).
HEK293 cells that can stably express human SGLT1 gene were inoculated into a 96-well clear-bottom black plate containing DMEM medium. The cells were incubated at 37° C., 5% CO2 in a cell incubator. The medium in the 96-well plate was aspirated, and the plate was treated with low-glucose serum-free DMEM medium, and washed once with non-specific uptake buffer and once with Na^+-dependent uptake buffer. Uptake buffer containing test compound was added to each well of cells, followed by uptake buffer containing 2-NBDG for glucose uptake, and the cell plate was incubated at 37° C., 5% CO2. The compounds were gradiently diluted. The uptake reaction was stopped by removing the culture medium, and after washing the cells with ice-cold uptake buffer, the washing solution was removed. The cells were lysed by adding NaOH, and the content of 2-NBDG in the cells was detected by a fluorescence microplate reader. The protein concentration of the lysate was measured by BCA method, the uptake of 2-NBDG was quantified by fluorescence intensity/protein content, and the obtained data were analyzed using GraphPad Prism to determine the median inhibitory concentration (IC50) of the compound to be tested.

[6] = Pharmacokinetic study in rats; assay type: in vivo, rat; details: 10 mg/kg, oral gavage, 0-24 hours
Description: 5. Pharmacokinetic Study in Rats • Experimental animals: SPF male SD rats; • Dosage and method of administration: 10 mg/kg, oral gavage. • Research compound: Dapagliflozin, the compound of Example 9, the compound of Example 10, the compound of Example 17, and the comparative compound 6;
Test method: Before administration (0), and 1, 4, 8, and 24 hours after administration, 0.2 ml of blood was collected from orbital venous plexus, anticoagulated with heparin, plasma was collected, and the blood drug concentration was determined.

[7] = Lipid solubility and water solubility; assay type: physicochemical; details: compared with the compound of Example 5

| activity of inhibiting SGLT1 (in words) [5] | IC50 [5] [pM] | drug concentration in plasma [6] | Structure (SMILES) | blood sugar level of rats (OGTT) [1] | loose stools in the experimental animals [1] | other results |
| --- | --- | --- | --- | --- | --- | --- |
| significant activity of inhibiting SGLT1 | 370 | did not reach the detection limit | C#CCN(C)C(=O)CN(C)CCNC(=O)C(C)(C)NC(=O)CCCc1ccc(Cc2cc([C@@H]3O[C@H](SC)[C@@H](O)[C@H](O)[C@H]3O)ccc2C)cc1 [Example 10] | significantly reduce the blood sugar level | no loose stools were observed | remaining compound ([2]; incubated with microorganisms in rat feces for about 24 hours): > 70%; Percentage of remaining compound ([2]; incubation 3 h): ++++ (“++++” means the remaining percentage being: >90%); Percentage of remaining compound ([2]; incubation 6 h): +++ (“+++” represents the remaining percentage being: 70% to 90%); Percentage of remaining compound ([2]; incubation 12 h): +++ (“+++” represents the remaining percentage being: 70% to 90%); Percentage of remaining compound ([2]; incubation 24 h): +++ (“+++” represents the remaining percentage being: 70% to 90%); blood glucose level of mice (OGTT) ([3]; day 6, high (1.5 mg/kg) and low (0.1 mg/kg) dose groups, glucose 2 g/kg): significantly reduce the blood glucose level; Statistics of loose stools in animals ([3]; high-dose group (1.5 mg/kg), Day 1): only one animal had loose stools and 1/10; Statistics of loose stools in animals ([3]; high-dose group (1.5 mg/kg), Day 2): 0/10; Statistics of loose stools in animals ([3]; high-dose group (1.5 mg/kg), Day 3): 0/10; Statistics of loose stools in animals ([3]; high-dose group (1.5 mg/kg), Day 4): 0/10; Statistics of loose stools in animals ([3]; high-dose group (1.5 mg/kg), Day 5): 0/10; loose stools (in words) ([3]; high-dose group (1.5 mg/kg), day 2 to day 5): did not have loose stools; Statistics of loose stools in animals ([3]; low-dose group (0.1 mg/kg), Day 1): 0/10; Statistics of loose stools in animals ([3]; low-dose group (0.1 mg/kg), Day 2): 0/10; Statistics of loose stools in animals ([3]; low-dose group (0.1 mg/kg), Day 3): 0/10; Statistics of loose stools in animals ([3]; low-dose group (0.1 mg/kg), Day 4): 0/10; Statistics of loose stools in animals ([3]; low-dose group (0.1 mg/kg), Day 5): 0/10; loose stools (in words) ([3]; low-dose group (0.1 mg/kg), continuous administration for 5 days): did not have loose stools; blood glucose level of diabetic model animals [4]: significantly reduce the blood glucose level |
| significant activity of inhibiting SGLT1 | 530 | did not reach the detection limit | C#CCN(CCNC(=O)C(C)(C)NC(=O)CCCc1ccc(Cc2cc([C@@H]3O[C@H](SC)[C@@H](O)[C@H](O)[C@H]3O)ccc2C)cc1)CC(=O)N1CCCC1 [Example 9] | significantly reduce the blood sugar level | no loose stools were observed |  |
| significant activity of inhibiting SGLT1 | 490 | did not reach the detection limit | C#CCN(C)C(=O)CN1CCN(C(=O)C(C)(C)NC(=O)CCCc2ccc(Cc3cc([C@@H]4O[C@H](SC)[C@@H](O)[C@H](O)[C@H]4O)ccc3C)cc2)CC1 [Example 17] | significantly reduce the blood sugar level | no loose stools were observed |  |

Second part, the molecule before the results:

| Structure (SMILES) | activity of inhibiting SGLT1 (in words) [5] | IC50 [5] [pM] | drug concentration in plasma [6] | blood sugar level of rats (OGTT) [1] | loose stools in the experimental animals [1] | other results |
| --- | --- | --- | --- | --- | --- | --- |
| CS[C@H]1O[C@@H](c2ccc(C)c(Cc3ccc(CCCC(=O)NC(C)(C)C(=O)NCCN(C)CC(=O)N(C)C)cc3)c2)[C@H](O)[C@@H](O)[C@@H]1O [Example 2] | significant activity of inhibiting SGLT1 | 1120 |  | significantly reduce the blood sugar level | no loose stools were observed |  |
| CS[C@H]1O[C@@H](c2ccc(C)c(Cc3ccc(CCCC(=O)NC(C)(C)C(=O)NCCN(C)CC(=O)N4CCCC4)cc3)c2)[C@H](O)[C@@H](O)[C@@H]1O [Example 1] | significant activity of inhibiting SGLT1 | 780 |  | significantly reduce the blood sugar level | no loose stools were observed |  |
| CS[C@H]1O[C@@H](c2ccc(C)c(Cc3ccc(CCCC(=O)NC(C)(C)C(=O)N4CCN(CC(=O)N5CCCC5)CC4)cc3)c2)[C@H](O)[C@@H](O)[C@@H]1O [Example 4] | significant activity of inhibiting SGLT1 | 870 |  |  |  |  |
| CS[C@H]1O[C@@H](c2ccc(C)c(Cc3ccc(CCCC(=O)NC(C)(C)C(=O)NCCN(C)CC(=O)N4CCN(C)CC4)cc3)c2)[C@H](O)[C@@H](O)[C@@H]1O [Example 3] | significant activity of inhibiting SGLT1 | 930 |  |  |  |  |
| CS[C@H]1O[C@@H](c2ccc(C)c(Cc3ccc(CCCC(=O)NC(C)(C)C(=O)NCCN(C)CC(=O)N(C)Cc4cn(C5CC5)nn4)cc3)c2)[C@H](O)[C@@H](O)[C@@H]1O |  |  |  |  |  | lipid solubility [7]: better; water solubility [7]: better |
